Where two headings read alike, the source gives them in different places.
Columns and labels:
Format in all cases: cell-based
3T3 cells = assay: MTT cell proliferation assay; settings: Mus musculus
How it was run: (§1)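 5,000-10,000 cells/well, overnight attach; 8 conc., 1 nM–30 μM; MTT ~4 h; formazan solubilized, OD 490 nm; % inhibition = (1−(ODo/OD))×100 vs neg. control; mostly duplicate, mean±SE.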

MS751 cells = assay: MTT cell proliferation assay; settings: Homo sapiens
How it was run: as §1

Z138 cells = assay: MTT cell proliferation assay; settings: Homo sapiens
How it was run: as §1

[1] = MTT cell proliferation assay; settings: human, MRC-5 cells (normal fetal lung cell line); MRC-5 cells; 72-hour MTT
Method: (§2) The MTT cell proliferation assay was used to study the cytotoxic properties of the compounds. The assay was performed according to the method described by Roche Molecular Biochemicals, with minor modifications. The assay is based on the cleavage of the tetrazolium salt, MTT, in the presence of an electron-coupling reagent. The water-insoluble formazan salt produced must be solubilized in an additional step. Cells grown in a 96-well tissue culture plate were incubated with the MTT solution for approximately 4 hours. After this incubation period, a water-insoluble formazan dye formed. After solubilization, the formazan dye was quantitated using a scanning multi-well spectrophotometer (ELISA reader). […] The cells were seeded at 5,000-10,000 cells in each well of 96-well plate in 100 μL of fresh culture medium and were allowed to attach overnight. The stock solutions of the compounds were diluted in 100 μL cell culture medium to obtain eight concentrations of each test compound, ranging from 1 nM to 30 μM. […] All optical densities were measured at 490 nm using a Vmax Kinetic Microplate Reader (Molecular Devices). In most cases, the assay was performed in duplicate and the results were presented as a mean percent inhibition to the negative control±SE. The following formula was used to calculate the percent of inhibition: Inhibition (%)=(1−(ODo/OD))×100.
(§3) The M24 cell line is derived from human melanoma cells. The U2OS cell line is a human osteosarcoma cell line expressing wild type p53 and Rb, but lacking p16. The MM1S cell line is a multiple myeloma cell line; the parent cell line, MM.1, was established from peripheral blood of a multiple myeloma patient who had become resistant to steroid-based therapy. The RPMI8226 cell line is derived from human B lymphocyte cells. NHDF cells are normal human dermal fibroblast cells. The MRC-5 cell line is derived from normal lung tissue of a fetus. The PC3 cell line is a human prostate cancer cell line. The DU-145 cell line is a human prostate cancer cell line. The MDA-MB-231 cell line is a human breast adenocarcinoma cell line. The MDA-MB-468 cell line is a human breast carcinoma cell line. HL-60 cells are human promyelocytic leukemia cells. Hep G2 cells are human hepatocellular carcinoma cells. HEP 3B cells are human hepatocellular carcinoma cells. The DLD-1 cell line is a colorectal adenocarcinoma cell line. The HCT-15 cell line is a human colon carcinoma cell line. The Colo-205 cell line is derived from a human adenocarcinoma of the colon. The LoVo cell line is a human colon adenocarcinoma cell line.

Colo-205 cells = assay: MTT cell proliferation assay; settings: Homo sapiens
Method: as §2, §3

DLD-1 cells = assay: MTT cell proliferation assay; settings: Homo sapiens
Method: as §2, §3

DU-145 cells = assay: MTT cell proliferation assay; settings: Homo sapiens
Method: as §2, §3

HCT-15 cells = assay: MTT cell proliferation assay; settings: Homo sapiens
Method: as §2, §3

LoVo cells = assay: MTT cell proliferation assay; settings: Homo sapiens
Method: as §2, §3

MDA-MB-231 cells = assay: MTT cell proliferation assay; settings: Homo sapiens
Method: as §2, §3

MDA-MB-468 cells = assay: MTT cell proliferation assay; settings: Homo sapiens
Method: as §2, §3

MM1S cells = assay: MTT cell proliferation assay; settings: Homo sapiens, MM1.S
Method: as §2, §3

NHDF cells = assay: MTT cell proliferation assay; settings: Homo sapiens
Method: as §2, §3

PC3 cells = assay: MTT cell proliferation assay; settings: Homo sapiens, PC-3
Method: as §2, §3

U2OS cells = assay: MTT cell proliferation assay; settings: Homo sapiens
Method: as §2, §3

M24 cells = assay: MTT cell proliferation assay; settings: Homo sapiens
Method: as §2, §3

MRC-5 cells = assay: MTT cell proliferation assay; settings: Homo sapiens, MRC5; MRC-5 cell line
Method: as §2, §3

HT-29 cells = assay: MTT cell proliferation assay; settings: Homo sapiens, 72-hour MTT
Method: as §2
Compounds 504, 510, 525 and 585 were further tested against selected solid and hematological cancer cell lines and selected normal cell lines in a 72-hour MTT cell proliferation assay.

[2] = NIH3T3, 72-hour MTT, read-out: 3T3 MTT IC50
[3] = NIH3T3, approximately 64-72 hours incubation, read-out: MTT Assay IC50 3T3
[4] = MS751, 72 h, MS751 cells, 72-hour MTT, read-out: MS751 MTT IC50
[5] = MS751, MS751 cells, approximately 64-72 hours incubation, read-out: MTT Assay IC50 MS-751
[6] = Z-138, 72 h, Z-138 cells, 72-hour MTT, read-out: Z-138 MTT IC50
[7] = Z-138, Z138 cells, approximately 64-72 hours incubation, read-out: MTT Assay IC50 Z-138
[8] = Colo-205 cells, 72-hour MTT, read-out: Colo-205 MTT IC50
[9] = DLD-1 cells, 72-hour MTT, read-out: DLD-1 MTT IC50
[10] = DU-145 cells, 72-hour MTT, read-out: DU-145 MTT IC50
[11] = HCT-15 cells, 72-hour MTT, read-out: HCT-15 MTT IC50
[12] = LoVo cells, 72-hour MTT, read-out: LoVo MTT IC50
[13] = MDA-MB-231 cells, 72-hour MTT, read-out: MDA-MB-231 MTT IC50
[14] = MDA-MB-468 cells, 72-hour MTT, read-out: MDA-MB-468 MTT IC50
[15] = MM1S cells, 72-hour MTT, read-out: MM1S MTT IC50
[16] = NHDF cells, 72-hour MTT, read-out: NHDF MTT IC50
[17] = PC3 cells, 72-hour MTT, read-out: PC3 MTT IC50
[18] = U2OS cells, 72-hour MTT, read-out: U2OS MTT IC50
[19] = Colo-205 cell line, read-out: MTT Assay IC50, Colo-205
[20] = DLD-1 cell line, read-out: MTT Assay IC50, DLD-1
[21] = DU-145 cell line, read-out: MTT Assay IC50, DU-145
[22] = HCT-15 cell line, read-out: MTT Assay IC50, HCT-15
[23] = LoVo cell line, read-out: MTT Assay IC50, LoVo
[24] = M24 cell line, read-out: MTT Assay IC50, M24
[25] = M24 cells, 72-hour MTT, read-out: M24 MTT IC50
[26] = MDA-MB-231 cell line, read-out: MTT Assay IC50, MDA-MB-231
[27] = MDA-MB-468 cell line, read-out: MTT Assay IC50, MDA-MB-468
[28] = MM1S cell line, read-out: MTT Assay IC50, MM1S
[29] = NHDF cell line, read-out: MTT Assay IC50, NHDF
[30] = U2OS cell line, read-out: MTT Assay IC50, U2OS

Row | SMILES | IC50 (3T3 cells; [2]) [nM] | IC50 (3T3 cells; [3]) [nM] | IC50 (MS751 cells; [4]) [nM] | IC50 (MS751 cells; [5]) [nM] | IC50 (Z138 cells; [6]) [nM] | IC50 (Z138 cells; [7]) [nM] | IC50 at 72 h [1] [nM] | IC50 (Colo-205 cells; [8]) [nM] | IC50 (DLD-1 cells; [9]) [nM] | IC50 (DU-145 cells; [10]) [nM] | IC50 (HCT-15 cells; [11]) [nM] | IC50 (LoVo cells; [12]) [nM] | IC50 (MDA-MB-231 cells; [13]) [nM] | IC50 (MDA-MB-468 cells; [14]) [nM] | IC50 (MM1S cells; [15]) [nM] | IC50 (NHDF cells; [16]) [nM] | IC50 (PC3 cells; [17]) [nM] | IC50 (U2OS cells; [18]) [nM] | IC50 (Colo-205 cells; [19]) [nM] | IC50 (DLD-1 cells; [20]) [nM] | further results
1 | Nc1ccc(/C=C/C(=O)NCc2cc3cc(-c4ccc(C(=O)N5CCC(F)(F)CC5)cn4)cc(C(F)(F)F)c3o2)cn1 [Compound 585, (E)-3-(6-aminopyridin-3-yl)-N-((5-(5-(4,4-difluoropiperidine-1-carbonyl)pyridin-2-yl)-7-(trifluoromethyl)benzofuran-2-yl)methyl)acrylamide] | > 10000 | > 10000 | 100 | < 100 | 20 | < 100 | 130 | 170 | 940 | 4900 | 270 | 260 | 1120 | 200 | 90 | 5820 | 140 | 60 | – | – | –
2 | Nc1ccc(/C=C/C(=O)NCc2cc3cc(-c4ccc(S(=O)(=O)N5CCOCC5)cc4)cc(Cl)c3o2)cn1 [Compound 504, (E)-3-(6-Aminopyridin-3-yl)-N-((7-chloro-5-(4-(morpholinosulfonyl)phenyl)benzofuran-2-yl)methyl)acrylamide] | 350 | 100 to 5000 | 30 | < 100 | 10 | < 100 | 20 | 80 | 110 | 80 | 80 | 180 | 220 | 1000 | 290 | 60 | 50 | 40 | < 100 | 100 to 5000 | IC50 (DU-145 cells; [21]): < 100 nM; IC50 (HCT-15 cells; [22]): < 100 nM; IC50 (LoVo cells; [23]): 100 to 5000 nM; IC50 (M24 cells; [24]): 100 to 5000 nM; IC50 (M24 cells; [25]): 50 nM; IC50 (MDA-MB-231 cells; [26]): 100 to 5000 nM; IC50 (MDA-MB-468 cells; [27]): 100 to 5000 nM; IC50 (MM1S cells; [28]): 100 to 5000 nM; IC50 (MRC-5 cells): < 100 nM; IC50 (NHDF cells; [29]): < 100 nM; IC50 (PC3 cells; PC3 cell line, read-out: MTT Assay IC50, PC3): < 100 nM; IC50 (U2OS cells; [30]): < 100 nM; IC50 (HT-29 cells): 480 nM
3 | Nc1ccc(/C=C/C(=O)NCc2cc3cc(-c4ccc(C(=O)N5CCOCC5)cc4)cc(C(F)(F)F)c3o2)cn1 [Compound 510, (E)-3-(6-aminopyridin-3-yl)-N-((5-(4-(morpholine-4-carbonyl)phenyl)-7-(trifluoromethyl)benzofuran-2-yl)methyl)acrylamide] | > 10000 | > 10000 | 100 | 100 to 5000 | 100 | < 100 | 50 | 160 | 950 | 1470 | 1270 | 230 | 1410 | 30 | 90 | 80 | 20 | 8 | 100 to 5000 | 100 to 5000 | IC50 (DU-145 cells; [21]): 100 to 5000 nM; IC50 (HCT-15 cells; [22]): 100 to 5000 nM; IC50 (LoVo cells; [23]): 100 to 5000 nM; IC50 (M24 cells; [24]): 100 to 5000 nM; IC50 (M24 cells; [25]): 290 nM; IC50 (MDA-MB-231 cells; [26]): 100 to 5000 nM; IC50 (MDA-MB-468 cells; [27]): < 100 nM; IC50 (MM1S cells; [28]): < 100 nM; IC50 (MRC-5 cells): < 100 nM; IC50 (NHDF cells; [29]): < 100 nM; IC50 (U2OS cells; [30]): < 100 nM; IC50 (HT-29 cells): 9310 nM

— patent US12331040B2 (Karyopharm Therapeutics Inc., priority 2013, dated 2025)
